According to ChEMBL document CHEMBL1139889, “Identification and characterization of a library of microheterogeneous cyclohexadepsipeptides from the fungus Isaria” (J Nat Prod, 2007):
Peptide text beside a SMILES is read from it.

Tests used:
Plasmodium falciparum = test: Growth inhibition of Plasmodium falciparum 3D7 in erythrocytes by [3H]hypoxanthine uptake; format: functional, organism-based
[1] = Toxicity against human erythrocytes assessed as lysis at 300 uM; format: cell-based; conditions: erythrocyte
[2] = Toxicity against human erythrocytes assessed as lysis at 600 uM; format: cell-based; conditions: erythrocyte

Compound: CC(C)CC1OC(=O)CCNC(=O)[C@H](Cc2ccccc2)N(C)C(=O)[C@H](C(C)C)N(C)C(=O)[C@H](Cc2ccccc2)NC(=O)[C@@H]2CCCN2C1=O (stereo partly specified) [ISARIDINE A] (HELM PEPTIDE1{F.[meV].[meF].[bAla].[CC(C)CC(O[*:1])C(=O)[*:2]].P}$PEPTIDE1,PEPTIDE1,1:R1-6:R2$$$V2.0)
- IC50 (Plasmodium falciparum): 230 µM
- Activity [1]: Non-toxic
- Activity [2]: Non-toxic

Compound: CCCCCCC1CC(=O)NCC(=O)N[C@@H](C(C)C)C(=O)N[C@H](CC(C)C)C(=O)N[C@@H](C)C(=O)N[C@@H](C(C)C)C(=O)O1 (stereo partly specified) [ISARIIN B]
- IC50 (Plasmodium falciparum): 118 µM
- Activity [1]: Non-toxic
- Activity [2]: Non-toxic
